Source: patent publication US10201523B2, “Use of wilforlide A for overcoming chemotherapy resistance” (WESTERN UNIVERSITY OF HEALTH SCIENCES, priority 2013, dated 2019)
Values joined by “and” are separate entries in the source; they are usually repeats but may differ in a detail not shown here. Equal entries are not always repeated.

Test system: Bt474-TxR
Test: SRB cell viability assay, lapatinib with/without wilforlide A pretreatment
Assay type: cell-based
[1] = Lapatinib 0.067 μM, 72 h, no wilforlide A pretreatment, Table 25
[2] = Lapatinib 0.2 μM, 72 h, pretreated with 25 μg/ml wilforlide A for 2 h, Table 26
[3] = Lapatinib 0.67 μM, 72 h, no wilforlide A pretreatment, Table 27
[4] = Lapatinib 0.67 μM, 72 h, pretreated with 25 μg/ml wilforlide A for 2 h, Table 26
[5] = Lapatinib 2.0 μM, 72 h, no wilforlide A pretreatment, Table 25
[6] = Lapatinib 2.0 μM, 72 h, no wilforlide A pretreatment, Table 27
[7] = Lapatinib 2.0 μM, 72 h, pretreated with 25 μg/ml wilforlide A for 2 h, Table 26
[8] = Lapatinib 6.7 μM, 72 h, no wilforlide A pretreatment, Table 25
[9] = Lapatinib 6.7 μM, 72 h, no wilforlide A pretreatment, Table 27
[10] = Lapatinib 6.7 μM, 72 h, pretreated with 25 μg/ml wilforlide A for 2 h, Table 26
[11] = Lapatinib 20 μM, 72 h, no wilforlide A pretreatment, Table 25
[12] = Lapatinib 20 μM, 72 h, no wilforlide A pretreatment, Table 27
[13] = Lapatinib 20 μM, 72 h, pretreated with 25 μg/ml wilforlide A for 2 h, Table 26

CS(=O)(=O)CCNCc1ccc(-c2ccc3ncnc(Nc4ccc(OCc5cccc(F)c5)c(Cl)c4)c3c2)o1 [lapatinib]
viability at 0.001 µM (72 h, Bt474-TxR, wilforlide A 2.5 μg/ml pre-Tx, lapatinib 0.001 μM 72 h): 100%
viability at 0.01 µM (72 h, Bt474-TxR, wilforlide A 2.5 μg/ml pre-Tx, lapatinib 0.01 μM 72 h): 103%
viability at 0.067 µM (72 h, Bt474-TxR, wilforlide A 2.5 μg/ml pre-Tx, lapatinib 0.067 μM 72 h): 96.1%
viability at 0.2 µM (72 h, Bt474-TxR, wilforlide A 2.5 μg/ml pre-Tx, lapatinib 0.2 μM 72 h): 84.8%
viability at 0.67 µM (72 h, Bt474-TxR, wilforlide A 2.5 μg/ml pre-Tx, lapatinib 0.67 μM 72 h): 76%
viability at 2 µM (72 h, Bt474-TxR, wilforlide A 2.5 μg/ml pre-Tx, lapatinib 2.0 μM 72 h): 67.4%
viability at 6.7 µM (72 h, Bt474-TxR, wilforlide A 2.5 μg/ml pre-Tx, lapatinib 6.7 μM 72 h): 70.2%
viability at 20 µM (72 h, Bt474-TxR, wilforlide A 2.5 μg/ml pre-Tx, lapatinib 20 μM 72 h): 60.9%
mean A (Bt474-TxR, wilforlide A 2.5 μg/ml pre-Tx, lapatinib 0.001 μM 72 h): 1.260
A at 565 nm (Bt474-TxR, wilforlide A 2.5 μg/ml pre-Tx, lapatinib 0.001 μM 72 h, background = 0.045): 1.301 and 1.370
mean A (Bt474-TxR, wilforlide A 2.5 μg/ml pre-Tx, lapatinib 0.01 μM 72 h): 1.293
A at 565 nm (Bt474-TxR, wilforlide A 2.5 μg/ml pre-Tx, lapatinib 0.01 μM 72 h, background = 0.045): 1.309 and 1.368
A at 565 nm (Bt474-TxR, wilforlide A 2.5 μg/ml pre-Tx, lapatinib 0.067 μM 72 h, background = 0.045): 1.297
mean A (Bt474-TxR, wilforlide A 2.5 μg/ml pre-Tx, lapatinib 0.67 μM 72 h): 0.957
A at 565 nm (Bt474-TxR, wilforlide A 2.5 μg/ml pre-Tx, lapatinib 0.67 μM 72 h, background = 0.045): 0.898 and 0.975
mean A (Bt474-TxR, wilforlide A 2.5 μg/ml pre-Tx, lapatinib 2.0 μM 72 h): 0.849
A at 565 nm (Bt474-TxR, wilforlide A 2.5 μg/ml pre-Tx, lapatinib 2.0 μM 72 h, background = 0.045): 0.895 and 0.791 and 0.861
mean A (Bt474-TxR, wilforlide A 2.5 μg/ml pre-Tx, lapatinib 6.7 μM 72 h): 0.884
A at 565 nm (Bt474-TxR, wilforlide A 2.5 μg/ml pre-Tx, lapatinib 6.7 μM 72 h, background = 0.045): 0.947 and 0.814 and 0.893
mean A (Bt474-TxR, wilforlide A 2.5 μg/ml pre-Tx, lapatinib 20 μM 72 h): 0.768
A at 565 nm (Bt474-TxR, wilforlide A 2.5 μg/ml pre-Tx, lapatinib 20 μM 72 h, background = 0.045): 0.798 and 0.689 and 0.817
viability at 0.001 µM (Lapatinib 0.001 μM, 72 h, no wilforlide A pretreatment, Table 25): 100%
A at 565 nm (Lapatinib 0.001 μM, 72 h, no wilforlide A pretreatment, Table 25, background = 0.045): 1.272 and 1.341
viability at 0.001 µM (Lapatinib 0.001 μM, 72 h, no wilforlide A pretreatment, Table 27): 100%
viability at 0.001 µM (Lapatinib 0.001 μM, 72 h, pretreated with 25 μg/ml wilforlide A for 2 h, Table 26): 100%
mean A (Lapatinib 0.01 μM, 72 h, no wilforlide A pretreatment, Table 25): 1.338
A at 565 nm (Lapatinib 0.01 μM, 72 h, no wilforlide A pretreatment, Table 25, background = 0.045): 1.352 and 1.344 and 1.318
viability at 0.01 µM (Lapatinib 0.01 μM, 72 h, no wilforlide A pretreatment, Table 27): 99.5%
viability at 0.01 µM (Lapatinib 0.01 μM, 72 h, pretreated with 25 μg/ml wilforlide A for 2 h, Table 26): 96.2%
mean A [1]: 1.304
viability at 0.067 µM [1]: 105%
A at 565 nm (Lapatinib 0.067 μM, 72 h, no wilforlide A pretreatment, Table 25, background = 0.045): 1.320 and 1.343
viability at 0.067 µM (Lapatinib 0.067 μM, 72 h, no wilforlide A pretreatment, Table 27): 98.7%
viability at 0.067 µM (Lapatinib 0.067 μM, 72 h, pretreated with 25 μg/ml wilforlide A for 2 h, Table 26): 94.6%
viability at 0.2 µM (Lapatinib 0.2 μM, 72 h, no wilforlide A pretreatment, Table 25): 92.8%
viability at 0.2 µM (Lapatinib 0.2 μM, 72 h, no wilforlide A pretreatment, Table 27): 94%
mean A [2]: 0.994
viability at 0.2 µM [2]: 86.6%
A at 565 nm (Lapatinib 0.2 μM, 72 h, pretreated with 25 μg/ml wilforlide A for 2 h, Table 26, background = 0.047): 0.963
viability at 0.67 µM (Lapatinib 0.67 μM, 72 h, no wilforlide A pretreatment, Table 25): 87%
mean A [3]: 0.994
viability at 0.67 µM [3]: 85%
A at 565 nm (Lapatinib 0.67 μM, 72 h, no wilforlide A pretreatment, Table 27, background = 0.047): 0.955
mean A [4]: 0.872
viability at 0.67 µM [4]: 76%
A at 565 nm (Lapatinib 0.67 μM, 72 h, pretreated with 25 μg/ml wilforlide A for 2 h, Table 26, background = 0.047): 0.813 and 0.937 and 0.865
mean A [5]: 0.987
viability at 2 µM [5]: 79.1%
A at 565 nm (Lapatinib 2.0 μM, 72 h, no wilforlide A pretreatment, Table 25, background = 0.045): 0.951
mean A [6]: 0.831
viability at 2 µM [6]: 71%
A at 565 nm (Lapatinib 2.0 μM, 72 h, no wilforlide A pretreatment, Table 27, background = 0.047): 0.887 and 0.809 and 0.797
mean A [7]: 0.832
viability at 2 µM [7]: 72.5%
A at 565 nm (Lapatinib 2.0 μM, 72 h, pretreated with 25 μg/ml wilforlide A for 2 h, Table 26, background = 0.047): 0.876 and 0.831 and 0.789
mean A [8]: 0.925
viability at 6.7 µM [8]: 74.2%
A at 565 nm (Lapatinib 6.7 μM, 72 h, no wilforlide A pretreatment, Table 25, background = 0.045): 0.926 and 0.823
mean A [9]: 0.795
viability at 6.7 µM [9]: 68%
A at 565 nm (Lapatinib 6.7 μM, 72 h, no wilforlide A pretreatment, Table 27, background = 0.047): 0.866 and 0.798 and 0.722
mean A [10]: 0.729
viability at 6.7 µM [10]: 63.5%
A at 565 nm (Lapatinib 6.7 μM, 72 h, pretreated with 25 μg/ml wilforlide A for 2 h, Table 26, background = 0.047): 0.663 and 0.737 and 0.787
mean A [11]: 0.876
viability at 20 µM [11]: 70.2%
A at 565 nm (Lapatinib 20 μM, 72 h, no wilforlide A pretreatment, Table 25, background = 0.045): 0.911 and 0.914 and 0.803
mean A [12]: 0.746
viability at 20 µM [12]: 63.8%
A at 565 nm (Lapatinib 20 μM, 72 h, no wilforlide A pretreatment, Table 27, background = 0.047): 0.807 and 0.697 and 0.735
mean A [13]: 0.587
viability at 20 µM [13]: 51.2%
A at 565 nm (Lapatinib 20 μM, 72 h, pretreated with 25 μg/ml wilforlide A for 2 h, Table 26, background = 0.047): 0.530 and 0.655 and 0.577
